Reference: patent US6281214A, “Biphenyl derivatives” (Eisai Co., Ltd, priority 1994, dated 2001)
Where two headings read alike, the source gives them in different places.

What was measured:
[1] = background, cited from earlier work; for extrapyramidal syndrome as adverse reaction: D2 receptor antagonists
dopamine D2 receptor = target: T1, dopamine D2 receptor (Rattus norvegicus, UniProt P61169); assay: dopamine D2 receptor binding test ([3H] Spiperone Binding Test); set-up: species or system SD rats; conditions: 1 nM [3H] Spiperone, rat corpus striatum, room temperature, 60 minutes
T1 construct: the receptor fraction prepared from the corpus striatum was molten and suspended; from tissue; host or cells: corpus striatum of SD rats (membrane fraction)
Method in brief: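 Rat (SD, 6–8 weeks) corpus striatum membranes in 50 mM Krebs-Tris pH 7.4 were incubated with 1 nM [3H]spiperone at room temperature for 60 minutes, with nonspecific binding defined by excess spiperone. IC50 came from probit analysis; Ki was derived using radioligand concentration and Scatchard Kd.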

serotonin S2 receptor = target: T2, serotonin S2 receptor (Rattus norvegicus, UniProt P14842); assay: serotonin S2 receptor binding test ([3H] Ketanserin Binding Test); set-up: species or system SD rats; conditions: 1 nM [3H] Ketanserin, rat cortex, 37° C., 15 minutes
T2 construct: The receptor fraction prepared from the cortex was molten and suspended; from tissue; host or cells: cerebral cortex of SD rats (membrane fraction)
Method in brief: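 Ki values came from probit IC50s corrected for radioligand concentration and Kd (Scatchard). Binding used 1 nM [3H]ketanserin with SD rat cortex membrane fractions, 15 min at 37 °C in Tris-HCl pH 7.4. Bound radioactivity was measured after GF/B filtration, with methysergide for nonspecific binding.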

adrenergic α1 receptor = adrenergic α1 receptor binding test ([3H] Prazosin Binding Test); set-up: species or system SD rats; conditions: 1 nM [3H] Prazosin, rat cortex, room temperature, 60 minutes
Method in brief: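 Rat (SD, 6-8 weeks) cerebral cortex membranes in 50 mM Tris-HCl pH 7.4 incubated with 1 nM [3H]prazosin for 60 min at room temperature; nonspecific binding defined with phentolamine. IC50 by probit method, converted to Ki using radioligand concentration and Scatchard-derived Kd.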

[2] = read-out: Ki value, dopamine D2 receptor

T1 sequence (P61169 whole entry): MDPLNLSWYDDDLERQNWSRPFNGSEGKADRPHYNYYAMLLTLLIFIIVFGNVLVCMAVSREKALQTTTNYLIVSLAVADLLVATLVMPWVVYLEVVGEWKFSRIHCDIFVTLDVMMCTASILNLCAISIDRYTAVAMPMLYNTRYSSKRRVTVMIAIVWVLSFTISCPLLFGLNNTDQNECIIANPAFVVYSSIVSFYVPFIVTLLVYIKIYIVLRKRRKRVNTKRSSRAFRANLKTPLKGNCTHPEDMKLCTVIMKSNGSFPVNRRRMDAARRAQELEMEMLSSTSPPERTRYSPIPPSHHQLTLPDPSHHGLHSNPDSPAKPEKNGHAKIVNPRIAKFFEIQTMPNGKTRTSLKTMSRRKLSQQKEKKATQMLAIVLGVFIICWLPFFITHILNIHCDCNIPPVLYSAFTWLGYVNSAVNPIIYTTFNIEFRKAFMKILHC
T2 sequence (P14842 whole entry): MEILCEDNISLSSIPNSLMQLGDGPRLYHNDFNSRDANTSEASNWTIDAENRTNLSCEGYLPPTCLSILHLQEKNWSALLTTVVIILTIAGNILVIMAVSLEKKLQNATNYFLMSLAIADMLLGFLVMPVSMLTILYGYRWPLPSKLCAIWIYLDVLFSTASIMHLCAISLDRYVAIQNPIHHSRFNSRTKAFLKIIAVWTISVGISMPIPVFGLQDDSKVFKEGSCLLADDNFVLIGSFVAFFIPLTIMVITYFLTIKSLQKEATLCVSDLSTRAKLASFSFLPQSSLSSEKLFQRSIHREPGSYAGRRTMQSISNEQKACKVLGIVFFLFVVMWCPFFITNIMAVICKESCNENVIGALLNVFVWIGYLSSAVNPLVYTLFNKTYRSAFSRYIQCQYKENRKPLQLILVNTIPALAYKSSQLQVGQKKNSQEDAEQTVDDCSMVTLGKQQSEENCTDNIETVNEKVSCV

Row | SMILES | extrapyramidal syndrome as adverse reaction [1] | blood-pressure drop as adverse reaction ([1]; owing to high α1 blocking activity) | QTC interval in electrocardiogram [1] | Ki (dopamine D2 receptor; [2]) [µM] | Ki (serotonin S2 receptor) [µM] | Ki (adrenergic α1 receptor) [µM] | Ki (dopamine D2 receptor; Ki value, dopamine D2 receptor) [µM]
1 | CCN(CC)CCNC(=O)c1cc(S(C)(=O)=O)ccc1OC [Tiapride] | causing extrapyramidal syndrome |  |  |  |  |  | 
2 | Cc1nc2n(c(=O)c1CCN1CCC(c3noc4cc(F)ccc34)CC1)CCCC2 [Risperidone, risperidone] |  | blood-pressure drop occurs as an adverse reaction | lengthened to induce arrhythmia |  |  |  | 
3 | CCN1CCN(c2cc(-c3ccccc3C)c(Cl)c(S(=O)(=O)N(C)C)c2)CC1 [Example 154, 1-Ethyl-4-[3-(2-tolyl)-4-chloro-5-dimethylaminosulfonyl]phenylpiperazine] |  |  |  | 0.00259 | 0.153 | > 1 | 
4 | C=CCCC(F)c1cc(N2CCN(CC)CC2)cc(-c2ccccc2)c1OC (stereo not shown) [Example 46, 1-Ethyl-4-{3-phenyl-4-methoxy-5-[1-fluoro-(4-pentenyl)]}phenylpiperazine] |  |  |  | 0.00978 | 0.00216 | > 1 | 
5 | O=C(CCCN1CCC(O)(c2ccc(Cl)cc2)CC1)c1ccc(F)cc1 [haloperidol] | causing extrapyramidal syndrome |  |  |  |  |  | 
6 | CCC(=O)c1cc(N2CCN(CC)CC2)cc(-c2ccccc2)c1OC [Example 82, 1-Ethyl-4-(3-phenyl-4methoxy-5-propionyl)phenylpiperazine] |  |  |  | 0.0391 | 0.0107 | 0.723 | 
7 | CCN1CCN(c2cc(C=O)c(OC)c(-c3ccccc3)c2)CC1 [Example 106, 1-Ethyl-4-(3-phenyl-4-methoxy-5-formyl)phenylpiperazine] |  |  |  |  | 0.38 | > 1 | 0.044
8 | CCCS(=O)(=O)Nc1cc(N2CCN(CC)CC2)cc(-c2ccc(Cl)cc2Cl)c1Cl [Example 189, 1-Ethyl-4-[3-(2,4-dichlorophenyl)-4-chloro-5-propanesulfonyamino]phenylpiperazine] |  |  |  | 0.00151 | > 0.1 | 0.0325 | 
9 | CCN1CCN(c2cc(-c3ccc(F)cc3C)c(Cl)c(S(=O)(=O)CC3CC3)c2)CC1 [Example 148, 1-Ethyl-4-{3-[2(4-fluorotolyl)]-4-chloro-5-cyclopropylmethylsulfonyl}phenylpiperazine] |  |  |  | 0.0121 | 0.0224 | 0.278 | 
10 | CCCC(F)c1cc(N2CCN(CC)CC2)cc(-c2ccccc2)c1OC (stereo not shown) [Example 47, 1-Ethyl-4-[3-phenyl-4-methoxy-5-(1-fluorobutyl)]phenylpiperazine] |  |  |  | 0.0129 | 0.00572 | > 1 | 
11 | CCN1CCN(c2cc(NS(=O)(=O)CC)c(Cl)c(-c3ccccc3Cl)c2)CC1 [Example 31, 1-Ethyl-4-[3-(2-chlorophenyl)-4-chloro-5-ethanesulfonylamino]phenylpiperazine] |  |  |  | 0.00069 | 0.0124 | 0.0361 | 
12 | CCN1CCN(c2cc(-c3ccccc3)c(OC)c([S+]([O-])CC)c2)CC1 (stereo not shown) [Example 105, 1-Ethyl-4-(3-phenyl-4-methoxy-5-ethanesulfinyl)phenylpiperazine] |  |  |  | 0.0302 | 0.00521 | 0.62 | 
13 | CCN1CCN(c2cc(NS(=O)(=O)CC(F)(F)F)c(Cl)c(-c3ccccc3Cl)c2)CC1 [Example 163, 1-Ethyl-4-[3-(2-chlorophenyl)-4-chloro-5-(2,2,2-trifluoroethyl)sulfonylamino]phenylpiperazine] |  |  |  | 0.0102 | 0.0636 | 0.195 | 
14 | CCN1CCN(c2cc(-c3ccccc3C)c(Cl)c(N3CCCC3)c2)CC1 [Example 177] |  |  |  | > 0.1 | > 0.1 | > 1 | 
15 | CCN1CCN(c2cc(-c3ccccc3C)c(Cl)c(C3SCCCS3)c2)CC1 [Example 190, 1-Ethyl-4-[3-(2-tolyl)-4-chloro-5-(1,3-dithian-2-yl)phenylpiperazinepropanedithio]phenylpiperazine] |  |  |  | 0.0404 | 0.0185 | > 1 | 
16 | CCN1CCN(c2cc(COCC3CC3)c(Cl)c(-c3ccccc3C)c2)CC1 [Example 176, 1-Ethyl-4-[3-(2-tolyl)-4-chloro-5-cyclopropylmethoxymethyl]phenylpiperazine] |  |  |  | > 0.1 | 0.178 | > 1 | 
17 | C/C=C/c1cc(N2CCN(CC)CC2)cc(-c2ccccc2)c1OC [Example 100, 1-Ethyl-4-[3-phenyl-4-methoxy-5-(1-propenyl)]phenylpiperazine hydrochloroide] |  |  |  | 0.0827 | 0.827 | 0.846 | 
